Measurements published in patent US20210380596A1, “UPADACITINIB CRYSTAL FORM AND PREPARATION METHOD THEREFOR AND USE THEREOF” (CRYSTAL PHARMACEUTICAL (SUZHOU) CO., LTD., priority 2019, published 2021).
Values after ≈ are worked out from the molar mass of the structure shown. Values joined by “and” are separate entries in the source; they are usually repeats but may differ in a detail not shown here. Equal entries are not always repeated. “Also recorded” adds a separate entry of the source.

Tests used:
[1] = Compressibility (tablet hardness and tensile strength); format: physicochemical; conditions: for Diameter / Thickness: 80 mg, Φ6 mm tooling, 10 kN, after 24 h, tablets 1-3; for Average tensile strength: mean of three tablets
Protocol: An ENERPAC manual tablet press was used for compression. […] Until complete elastic recovery, hardness (H) was tested with an intelligent tablet hardness tester. Diameter (D) and thickness (L) were tested with a caliper. Tensile strength of the powder was calculated with the following formula: T=2H/πDL. Under a certain force, the greater the tensile strength, the better the compressibility.

[2] = Flowability (compressibility index / Carr index); format: physicochemical; conditions: for Bulk density (ρ0): 5-mL measuring cylinder, 500 mg; for Flowability: criteria of ICH Q4B Annex 13; for Tapped density (ρf): tapping times: 1250
Protocol: Compressibility index or Carr index is usually utilized to evaluate the flowability of powder and granules during the drug product process. Compressibility index test method is as follows: a certain amount of powder was added into a measuring cylinder and bulk volume was recorded. Then the powder was tapped to make it in the tightest state and the tapped volume was recorded. The bulk density ρ0 and tapped density pf were calculated. The compressibility index was calculated according to c=(ρf−ρ0)/ρf.
Equipment: ZS-2E tap density tester.
Parameter: 5-mL measuring cylinder, 500 mg, tapping times: 1250.

[3] = Adhesiveness (material sticking to the punch); format: physicochemical; conditions: 30 mg, Φ8 mm tooling, 10 kN held 30 s
Protocol: The amount of material sticking to the punch was weighed. The compression was repeated twice and the average amount of material sticking to the punch during the compression were recorded.

[4] = FaSSIF, 37° C.; disclosed in WO2017066775A1; cited from earlier work
[5] = Stability of Form CSII in drug product (formulation process and storage); format: physicochemical; conditions: formulation and process of Tables 14 and 15
Protocol: Crystalline form before and after tableting were checked by XRPD.
The drug products of Form CSII were stored under 25° C./60% RH and 40° C./75% RH in closed dishes with 1 g of desiccant for 3 months to evaluate the stability of Form CSII in drug product.

[6] = Stability of Form CSII drug substance on storage (XRPD, HPLC purity); format: physicochemical; conditions: for Chemical purity during storage: drug substance
Protocol: X-ray powder diffraction patterns in the present disclosure were acquired by a Bruker D2 PHASER or Bruker D8 Discover X-ray powder diffractometer. The parameters of the X-ray powder diffraction method of the present disclosure are as follows:
The method parameters for relative substances test in the present disclosure are as follows:
A certain amount of Form CSII sample was stored at different conditions of 4° C., 25° C./60% RH, 40° C./75% RH and 60° C./75% RH. Crystalline form was checked by XRPD before and after storage.

[7] = Mechanical stability (tableting at 10 kN, manual grinding; XRPD); format: physicochemical
Protocol: 30 mg of Form CSII was weighed into the dies of a Φ8 mm round tooling and tableted by ENERPAC manual tablet press with 10 kN pressure. Crystalline form before and after tableting were checked by XRPD. […] 10 mg of Form CSII was weighed into a mortar and ground manually for 5 min. The crystalline form before and after grinding were checked by XRPD.

[8] = Kinetic solubility of Form CSII (saturated solutions, HPLC); format: physicochemical
Protocol: The method parameters of kinetic solubility test in the present disclosure are as follows:
A certain amount of Form CSII was suspended into pH=7.4 PBS, pH=6.5 FaSSIF and pH=5.0 FeSSIF at 25° C. or 37° C. to obtain saturated solutions. After equilibration for 24 h, 30 h and 48 h, the suspensions were filtered to obtain saturated solutions, and concentration was determined by HPLC.

[9] = Particle size distribution (Mastersizer 3000, wet mode); format: physicochemical; conditions: Isopar G containing 0.2% lecithin
Protocol: Proton nuclear magnetic resonance (H NMR) spectrum data were collected from a Bruker Avance II DMX 400M HZ NMR spectrometer. 1-5 mg of sample was weighed and dissolved in 0.5 mL of deuterated dimethyl sulfoxide to obtain a solution with a concentration of 2-10 mg/mL. The particle size distribution data in the present disclosure were acquired by a Mastersizer 3000 laser particle size analyzer of Malvern. The test is carried out in wet mode with a Hydro MV dispersing device, and the dispersion medium is Isopar G. The method parameters of the laser particle size analyzer are as follows:
The mixtures were mixed thoroughly and transferred into the Hydro MV. The measurement was started when the shading rate is in an appropriate position.

[10] = listed as Form C in WO2017066775A1
[11] = 25° C./60% RH, closed, 3 months
[12] = 40° C./75% RH, closed, 3 months
[13] = FaSSIF pH 6.5, thermodynamic from solid, pH=6.5 FaSSIF, 37° C.
[14] = FeSSIF pH 5.0, thermodynamic from solid, pH=5.0 FeSSIF, 37° C.
[15] = PBS pH 7.4, aqueous buffer, thermodynamic from solid, pH=7.4 PBS, 25° C.

Question: For `CC[C@@H]1CN(C(=O)NCC(F)(F)F)C[C@@H]1c1cnc2cnc3[nH]ccc3n12` [Form C, (3S,4R)-3-ethyl-4-(3H-imidazo[1,2-a]pyrrolo [2,3-e]pyrazin-8-yl)-N-(2,2,2-trifluoroethyl) pyrrolidine-1-carboxamide, reference compound], which Diameter [1, 10] is on record?
Answer: The Diameter was 6.00 mm and 6.01 mm.

Question: And the Thickness [1, 10]?
Answer: Its Thickness is 2.14 mm and 2.18 mm and 2.07 mm.

Question: And the Average tensile strength [1, 10]?
Answer: Its Average tensile strength is 0.69 MPa.

Question: And the “Bulk density (ρ0)” value [2, 10]?
Answer: The value was 0.3611 g/mL.

Question: What about the Flowability [2, 10] of the same compound?
Answer: Its Flowability is “Very poor (32-37)”.

Question: And the “Tapped density (ρf)” value [2, 10]?
Answer: The value was 0.5618 g/mL.

Question: What about the “Average amount of material sticking to the punch” value [3, 10] of the same compound?
Answer: The value was 0.21 mg.

Question: And the Solubility [4]?
Answer: The Solubility was 220 µg/mL (≈ 578 µM).

Question: Which “Crystalline form in the formulation process (before and after tableting, XRPD)” value [5] does the source give for `CC[C@@H]1CN(C(=O)NCC(F)(F)F)C[C@@H]1c1cnc2cnc3[nH]ccc3n12` [Form CSII, (3S,4R)-3-ethyl-4-(3H-imidazo[1,2-a]pyrrolo [2,3-e]pyrazin-8-yl)-N-(2,2,2-trifluoroethyl) pyrrolidine-1-carboxamide] here?
Answer: The value was “stable”.

Question: And the Diameter [1]?
Answer: Its Diameter is 6.05 mm and 6.04 mm and 6.03 mm.

Question: And the Thickness [1]?
Answer: The Thickness was 2.35 mm and 2.16 mm and 2.12 mm.

Question: And the Average tensile strength [1]?
Answer: Its Average tensile strength is 0.88 MPa.

Question: What about the “Bulk density (ρ0)” value [2] of the same compound?
Answer: The value was 0.3295 g/mL.

Question: And the Flowability [2]?
Answer: Its Flowability is “Excellent (≤10)”.

Question: What about the “Tapped density (ρf)” value [2] of the same compound?
Answer: Its value is 0.3548 g/mL.

Question: What about the “Time kept stable (crystalline state unchanged)” value ([6]; 4° C.) of the same compound?
Answer: The value was “at least 3 months”.

Question: What about the Purity ([6]; 4° C., closed, 3 months) of the same compound?
Answer: Its Purity is 99.41%.

Question: What about the Solid form ([6]; 4° C., closed, 3 months) of the same compound?
Answer: Its Solid form is “Form CSII”.

Question: And the Purity [6, 11]?
Answer: Its Purity is 99.42%.

Question: And the Solid form [6, 11]?
Answer: Its Solid form is “Form CSII”.

Question: What about the Purity ([6]; 25° C./60% RH, open, 3 months) of the same compound?
Answer: Its Purity is 99.43%.

Question: What about the Solid form ([6]; 25° C./60% RH, open, 3 months) of the same compound?
Answer: Its Solid form is “Form CSII”.

Question: And the Purity [6, 12]?
Answer: Its Purity is 99.42%.

Question: And the Solid form [6, 12]?
Answer: Its Solid form is “Form CSII”.

Question: What about the Purity ([6]; 40° C./75% RH, open, 3 months) of the same compound?
Answer: Its Purity is 99.44%.

Question: And the Solid form ([6]; 40° C./75% RH, open, 3 months)?
Answer: Its Solid form is “Form CSII”.

Question: And the Purity ([6]; 60° C./75% RH, closed, 1 month)?
Answer: The Purity was 99.43%.

Question: What about the Solid form ([6]; 60° C./75% RH, closed, 1 month) of the same compound?
Answer: The Solid form was “Form CSII”.

Question: And the Purity ([6]; 60° C./75% RH, open, 1 month)?
Answer: Its Purity is 99.48%.

Question: And the Solid form ([6]; 60° C./75% RH, open, 1 month)?
Answer: Its Solid form is “Form CSII”.

Question: What about the Purity ([6]; Initial) of the same compound?
Answer: The Purity was 99.35%.

Question: What about the Solid form ([6]; Initial) of the same compound?
Answer: The Solid form was “Form CSII”.

Question: What about the “Chemical purity during storage” value ([6]; 25° C./60% RH) of the same compound?
Answer: Its value is “above 99%”.

Question: What about the “Chemical purity during storage” value ([6]; 40° C./75% RH and 60° C./75% RH) of the same compound?
Answer: Its value is “above 99%”.

Question: What about the Crystallinity after tableting ([7]; 10 kN pressure) of the same compound?
Answer: The Crystallinity after tableting was “remained basically unchanged”.

Question: And the “Crystalline state after tableting” value ([7]; 10 kN pressure, Φ8 mm round tooling)?
Answer: Its value is “does not change”.

Question: And the “Crystalline state after grinding” value ([7]; ground manually for 5 min)?
Answer: Its value is “does not change; also recorded: doesn't change”.

Question: What about the Crystallinity after grinding ([7]; ground manually for 5 min) of the same compound?
Answer: Its Crystallinity after grinding is “remained basically unchanged”.

Question: And the solubility at 24 h [8, 13]?
Answer: The solubility at 24 h was 740 µg/mL (≈ 1950 µM).

Question: And the solubility at 30 h [8, 13]?
Answer: The solubility at 30 h was 760 µg/mL (≈ 2000 µM).

Question: And the solubility at 48 h [8, 13]?
Answer: Its solubility at 48 h is 830 µg/mL (≈ 2180 µM).

Question: And the solubility at 24 h [8, 14]?
Answer: The solubility at 24 h was 1400 µg/mL (≈ 3680 µM).

Question: And the solubility at 30 h [8, 14]?
Answer: Its solubility at 30 h is 1400 µg/mL (≈ 3680 µM).

Question: And the solubility at 48 h [8, 14]?
Answer: The solubility at 48 h was 1500 µg/mL (≈ 3940 µM).

Question: What about the solubility at 24 h [8, 15] of the same compound?
Answer: The solubility at 24 h was 730 µg/mL (≈ 1920 µM).

Question: And the solubility at 30 h [8, 15]?
Answer: Its solubility at 30 h is 740 µg/mL (≈ 1950 µM).

Question: And the solubility at 48 h [8, 15]?
Answer: Its solubility at 48 h is 720 µg/mL (≈ 1890 µM).

Question: What about the “Solubility compared with Form C” value ([8]; pH=7.4 PBS, FaSSIF and FeSSIF) of the same compound?
Answer: The value was “higher”.

Question: What about the Particle size distribution [9] of the same compound?
Answer: Its Particle size distribution is “uniform”.

Question: What about the “Average amount of material sticking to the punch” value [3] of the same compound?
Answer: Its value is 0.16 mg.
